Key:
[1] = system: anaerobes in secretion of subgingival space of a patient with a disease of periodontium; experiment: Sensitivity to antibiotics and their mixture, subgingival secretion, anaerobic conditions; type: cell-based, anaerobic bacteria; details: Schaedler Agar, dishes 1a-3a, 37° C., after 8 hours
From the text: (§1) Express determination of sensitivity to a mixture of antibiotics, namely gentamicin (mainly affects aerobic bacteria) and metronidazole (active against anaerobic bacteria and microaerophils), while inoculating material obtained from a patient suffering from a disease of periodontium. Material to be investigated: freshly collected secretion of subgingival space. Nutrient medium: Columbia Agar medium enriched with sheep red blood cells and horse serum was used for cultivation in aerobic conditions. Anaerobic microorganisms were detected using Schaedler Agar containing sheep red blood cells and serum. […] were added to the medium: gentamicin (active against a wide range of aerobes) and metronidazole that selectively affects anaerobic bacteria. Medium in dishes 1 and 1a contains gentamicin; medium in dishes 2 and 2a contains metronidazole; medium in dishes 3 and 3a contains gentamicin and metronidazole; dishes 4 and 4a contain only the nutrient medium (control). The secretion of subgingival space was diluted fivefold using isotonic solution of sodium chloride and plated in the amount of 0.05 ml per dish using a spreader. […] The results were analyzed after 4, 8, 12, 20, 24 and 48 hours after the inoculation (anaerobic bacteria are characterized by lengthy growth).

[2] = system: aerobes in secretion of subgingival space of a patient with a disease of periodontium; experiment: Sensitivity to antibiotics and their mixture, subgingival secretion, aerobic conditions; type: cell-based, aerobic bacteria; details: Columbia Agar, dishes 1-3, 37° C., whole observation period; lawn in control after 4 hours
From the text: as §1

[3] = system: fungi that cause diseases of plants (powdery mildew); experiment: Express determination of sensitivity of plant-disease fungi to antifungal preparations; type: cell-based; details: 30° C., nystatin 0.4 mg/l; for growth in the well with the antifungal preparation: Sabouraud Agar with gentamicin 0.01 mg/l, after 8 hours, propiconazole 1%
Procedure: Express determination of the sensitivity of fungi that cause diseases of plants (powdery mildew) to antifungal preparations.
Material to be investigated: wipe sampling of isotonic solution of sodium chloride taken from affected areas of a leaf of a plant that has indications of fungi growth.
Nutrient medium: Sabouraud Agar medium enriched with mineral components, placed into a plate with six wells. in order to prevent the growth of bacteria, gentamicin was added to the agar in the amount of 0.01 mg/l. The antifungal preparations to be investigated were also added to the medium: 1st well—propiconazole, in final concentration of 1%; 2nd well—nystatin (0.4 mg/l); 3rd well—control without any antifungal preparations.
1.0 ml of isotonic solution a sodium chloride was washed from […] of the affected area. The material was plated using an inoculation loop.
The inoculations were cultivated at 30° C. The results were analyzed after 6, 8, 12, 20, 24 and 48 hours after the inoculation.

[4] = system: bacteria in urine of a patient suffering from cystitis; type: cell-based
[5] = system: bacteria in secretion from the wound of a dog with a wound infection; experiment: Express determination of bacteria sensitivity, wound secretion of a dog; type: cell-based; details: ampicillin 1 μg/ml in enriched Columbia Agar, 37° C., lawn in control after 4-6 hours
Procedure: Express determination of bacteria sensitivity to ampicillin while inoculating material obtained from an animal (a dog) with a wound infection.
The method was carried out similarly to the way described in example 1.
Material to be investigated: secretion from the wound.
Nutrient medium: Columbia Agar medium enriched with horse serum and sheep red blood cells, vitamins and amino acids. Ampicillin was added to the medium in maximum concentration achievable at the location where the material was taken—1 μg/ml.
Material taken from the wound was plated using a swab on the medium in a Petri dish. Same medium and cultivation conditions (without ampicillin) were used for control purposes.
The culture was incubated at temperature of 37° C.

| Compound | microbial growth in anaerobic conditions [1] | microbial growth in aerobic conditions [2] | growth in the well with the antifungal preparation [3] | further results |
| --- | --- | --- | --- | --- |
| gentamicin | Microbial growth | Microbial growth |  |  |
| Cc1ncc([N+](=O)[O-])n1CCO [metronidazole] | Microbial growth | Microbial growth |  |  |
| CCCC1COC(Cn2cncn2)(c2ccc(Cl)cc2Cl)O1 (stereo not drawn) [propiconazole] |  |  | No growth |  |
| CC[C@H]1OC(=O)[C@H](C)[C@@H](O[C@H]2C[C@@](C)(OC)[C@@H](O)[C@H](C)O2)[C@H](C)[C@@H](O[C@@H]2O[C@H](C)C[C@H](N(C)C)[C@H]2O)[C@](C)(O)C[C@@H](C)CN(C)[C@H](C)[C@@H](O)[C@]1(C)O [azithromycin] |  |  |  | growth of bacteria in the presence of the antibiotic [4]: no growth |
| CC1(C)S[C@@H]2[C@H](NC(=O)[C@H](N)c3ccccc3)C(=O)N2[C@H]1C(=O)O [ampicillin] |  |  |  | bacterial growth in the dish with the antibiotic [5]: No bacterial growth |
| C[C@@H]1[C@H](O)[C@@H](C)/C=C/C=C/CC/C=C/C=C/C=C/C=C/C(O[C@H]2O[C@H](C)[C@@H](O)[C@H](N)[C@@H]2O)CC2O[C@](O)(CC(O)C(O)CCC(O)CC(O)CC(O)CC(=O)O[C@H]1C)CC(O)C2C(=O)O (stereo partly drawn) [nystatin] |  |  | growth was observed | sensitivity of the mold to the preparation [3]: resistant |

From patent publication US10221440B2, “Method for determining the sensitivity of microorganisms to antimicrobial substances” (priority 2012, dated 2019)
